Data: patent US8207221B2, “Crystalline polymorphs of a CXC-chemokine receptor ligand” (Schering Corporation, priority 2004, dated 2012)

Test system: CXC-chemokine receptor
Assay: activity as a CXC-chemokine receptor ligand
Conditions: qualitative statement, no method or figures given

CC[C@@H](Nc1c(Nc2cccc(C(=O)N(C)C)c2O)c(=O)c1=O)c1ccc(C)o1 [Anhydrous Compound A]
activity as a CXC-chemokine receptor ligand: particularly active

CC[C@@H](Nc1c(Nc2cccc(C(=O)N(C)C)c2O)c(=O)c1=O)c1ccc(C)o1 [monohydrate form of Compound A]
activity as a CXC-chemokine receptor ligand: substantially similar activity
